What was measured:
HSV-1 helicase-primase = target: T1, HSV-1 helicase-primase (Human herpesvirus 1, UniProt P10189+P10236); assay: HSV-1 DNA-dependent ATPase assay (inhibition of HSV-1 helicase-primase); assay type: biochemical; conditions: Group 1 Table 1
T1 construct: made in house; host or cells: Sf21 insect cells triply infected with recombinant baculoviruses
From the text: A) HSV-1 DNA-Dependent ATP Assay (an in Vitro Assay Based on the Inhibition of HSV-1 Helicase-primase).
a) Preparation of enzyme: HSV-1 helicase-primase holoenzyme was produced in triply infected Sf21 cells using recombinant baculoviruses expressing the UL5, UL8 and UL52 helicase-primase subunits, as described by S. Dracheva et al., J. Biol. Chem. 1995, 270, 14148. The crude enzyme was purified by ammonium sulfate precipitation, Source 15Q® chromatography and Sephacryl® S-300 HR gel filtration (both purification systems can be obtained from Pharmacia Biotech Inc., Montreal, Quebec, Canada), see S. Dracheva et al., supra.
b) Assay: The DNA-dependent ATPase assay, described by J. J. Crute et al., Nucleic Acids Res. 1988, 16, 6585, was modified and used to evaluate the capability of the compounds of Group 1-formula 1 to inhibit HSV-1 helicase-primase activity. The reaction mixtures (80 μL each) contained 40 mM 4-(2-hydroxyethyl)-1-piperazineethanesulfonic acid (HEPES, pH 7.5), 10% (v/v) glycerol, 5.5 mM MgCl2, 1 mM DL-dithiothreitol (DTT), 50 μg/mL acetylated bovine serum albumin, 3.3% (v/v) DMSO, 4 mM ATP, 25 μM single-stranded M13 DNA hybridized to double-tailed 68-mer oligonucleotide and 3 μg/mL HSV-1 helicase-primase. After incubation for 20 min at 34°, formation of inorganic phosphate from hydrolysis of ATP was monitored spectrophotometrically at 650 nm using acidic ammonium molybdate/malachite green reagent, P. A. Lanzetta et al., Anal. Biochem. 1979, 100, 95. DNA-dependent ATPase activity was calculated from the net absorbance change in the presence and absence of inhibition.

HCMV (strain AD169) [1] = assay: Inhibition of HCMV replication, plaque reduction assay (PRA, Hs-68 cells); assay type: cell-based, human cytomegalovirus; conditions: Group 1 Table 1, read-out: PRA CMV EC50
Protocol: (§1) C) Inhibition of Human Cytomegalovirus (HCMV) replication
(§2) The effect of compounds on the replication of HCMV has been measured by using an ELISA-based assay (ELISA) and a plaque reduction assay (PRA).
(§3) Hs-68 cells ( ATCC # CRL 1635) were seeded in 12-well plates at 83,000 cells/well in 1 mL of DMEM medium (Gibco Canada Inc.) supplemented with 10% fetal bovine serum (FBS, Gibco Canada Inc.). The plates were incubated for 3 days at 37° to allow the cells to reach 80-90% confluency prior to the assay.
The medium was removed from the cells by aspiration. The cells were then infected with approximately 50 PFU of HCMV (strain AD169, ATCC VR-538) in DMEM medium supplemented with 5% inactivated FBS (assay medium). The virus was allowed to adsorb to cells for 2 h at 37°. Following viral adsorption, the medium was removed from the wells by aspiration. The cells were then incubated with or without 1 mL of appropriate concentrations of test reagent in assay medium. After 4 days of incubation at 37°, the medium was exchanged with fresh medium containing test compound and 4 days later the cells were fixed with 1% aqueous formaldehyde and stained with a 2% crystal violet solution in 20% ethanol in water. Microscopic plaques were counted using a stereomicroscope. Drug effects were calculated as a percent reduction in the number of plaques in the presence of each drug concentration compared to the number observed in the absence of drug. Ganciclovir was used as a positive control in all experiments.
The EC50 values obtained according to this assay for certain thiazolyl derivatives of this invention are listed in the following tables under the heading PRA CMV.

HCMV (strain AD169) [2] = assay: Inhibition of HCMV replication, ELISA assay (Hs-68 cells, p28); assay type: cell-based, human cytomegalovirus; conditions: Human betaherpesvirus 5, AD169, Hs68; Group 1 Table 1; read-out: ELISA CMV EC50
Protocol: as §1, §2
as §3, with “(ATCC” for “( ATCC”, “96 well microtiter” for “12-well”, “10,000” for “83,000”, “100 μL” for “1 mL”
The medium was removed from wells by aspiration. The cells then were infected at a multiplicity of infection (MOI) of 0.01 PFU/cell with 50 μL of HCMV (strain AD169, ATCC VR-538) in DMEM medium supplemented with 5% heat inactivated FBS (assay medium). The virus was allowed to adsorb to cells for 2 h at 37°. Following viral adsorption, the medium was removed from the wells by aspiration. The cells were washed twice with 200 μL of assay medium to remove unabsorbed virus. The cells were then incubated with or without 100 μL of appropriate concentrations of test reagent in assay medium. After 8 days of incubation at 37°, the extent of viral replication was determined by an ELISA assay which detects the late structural protein p28 of HCMV.
Eight days after infection, the medium was aspirated from the wells. Non-specific binding sites were blocked by adding 200 μL of phosphate buffered saline containing 1% (w/v) bovine serum albumin (blocking buffer) to each well and incubating the plates for 30 min at room temperature. After removal of the blocking buffer by aspiration, the cells were fixed with 100 μL of cold ethanol-acetone solution (95:5) per well. The plates were placed at −20° for 30 min. The plates were washed 4 times with phosphate buffered saline containing 0.05% (v/v) polyoxyethylene sorbitan monolaurate (Tween 20®). Thereafter, 100 μL of mAb UL99 (Advanced Biotechnologies Inc., #13-130-100) recognizing HCMV protein p28 was added to each wells and plates were incubated for 2 h at room temperature. The plates were washed four times with 200 μL of the above-noted phosphate buffered saline/Tween-20® solution. The cells were then incubated with 100 μL of sheep anti-mouse IgGγ horseradish peroxidase conjugated for 2 h at room temperature. The plates were then washed four times with 200 μL of above-noted phosphate buffered saline/Tween-20®solution. Thereafter, 100 μL of ortho phenylenediamine dihydrochloride (OPD, Gibco Canada Inc.) solution was added to each well and the plates were agitated on a microplate shaker for 30 min in the dark. Color development was monitored at 450 nm using a microplate spectrophotometer.
The SAS program was used to calculate the % inhibition of viral replication and to generate EC50 values.
The EC50 values obtained according to this assay method for certain thiazolylphenyl derivatives of this invention are listed in the following tables under the heading ELISA CMV.

[3] = Human betaherpesvirus 5, AD169, Hs68

T1 sequence (P10189 whole entry): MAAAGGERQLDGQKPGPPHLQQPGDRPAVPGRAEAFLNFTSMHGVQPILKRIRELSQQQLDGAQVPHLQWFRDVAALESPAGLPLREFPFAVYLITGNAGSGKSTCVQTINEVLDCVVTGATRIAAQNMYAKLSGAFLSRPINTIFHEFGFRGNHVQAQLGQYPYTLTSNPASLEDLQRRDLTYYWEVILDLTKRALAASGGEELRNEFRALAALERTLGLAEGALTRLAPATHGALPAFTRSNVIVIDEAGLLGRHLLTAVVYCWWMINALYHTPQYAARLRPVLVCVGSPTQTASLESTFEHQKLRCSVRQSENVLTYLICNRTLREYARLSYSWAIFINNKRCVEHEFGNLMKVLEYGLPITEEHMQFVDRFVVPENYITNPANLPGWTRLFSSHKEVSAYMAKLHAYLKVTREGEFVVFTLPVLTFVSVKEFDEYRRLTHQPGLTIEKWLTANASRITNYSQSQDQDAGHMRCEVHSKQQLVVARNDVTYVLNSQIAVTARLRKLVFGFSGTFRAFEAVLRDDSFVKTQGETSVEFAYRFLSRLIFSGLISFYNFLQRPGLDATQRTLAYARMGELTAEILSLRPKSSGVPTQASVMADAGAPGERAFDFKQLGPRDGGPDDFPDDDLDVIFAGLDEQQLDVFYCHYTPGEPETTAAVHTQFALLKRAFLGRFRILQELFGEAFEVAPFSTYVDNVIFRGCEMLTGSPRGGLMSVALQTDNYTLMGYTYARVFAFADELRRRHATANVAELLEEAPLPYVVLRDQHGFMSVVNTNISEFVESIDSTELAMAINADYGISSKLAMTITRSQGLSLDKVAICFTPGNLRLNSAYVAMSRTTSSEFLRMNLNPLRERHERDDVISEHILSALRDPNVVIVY
T1 sequence (P10192 whole entry, further chain): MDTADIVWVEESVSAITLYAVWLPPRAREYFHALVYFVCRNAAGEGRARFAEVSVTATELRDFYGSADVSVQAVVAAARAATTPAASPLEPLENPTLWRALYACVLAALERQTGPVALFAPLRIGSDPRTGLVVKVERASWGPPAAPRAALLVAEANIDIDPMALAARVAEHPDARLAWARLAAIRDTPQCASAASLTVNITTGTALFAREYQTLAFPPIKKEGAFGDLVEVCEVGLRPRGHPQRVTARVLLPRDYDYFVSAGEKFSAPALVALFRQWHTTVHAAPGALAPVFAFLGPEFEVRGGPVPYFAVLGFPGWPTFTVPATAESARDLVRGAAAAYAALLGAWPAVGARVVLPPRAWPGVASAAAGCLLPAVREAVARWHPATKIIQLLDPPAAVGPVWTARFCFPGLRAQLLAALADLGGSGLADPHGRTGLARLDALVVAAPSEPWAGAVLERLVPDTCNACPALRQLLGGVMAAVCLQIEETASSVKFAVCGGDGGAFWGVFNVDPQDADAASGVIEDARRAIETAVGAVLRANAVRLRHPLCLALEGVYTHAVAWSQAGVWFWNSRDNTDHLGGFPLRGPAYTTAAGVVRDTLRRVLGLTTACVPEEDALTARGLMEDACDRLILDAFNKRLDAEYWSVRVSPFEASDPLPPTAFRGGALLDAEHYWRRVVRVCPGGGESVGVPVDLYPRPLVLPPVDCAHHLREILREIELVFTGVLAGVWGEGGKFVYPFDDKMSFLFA
T1 sequence (P10236 whole entry): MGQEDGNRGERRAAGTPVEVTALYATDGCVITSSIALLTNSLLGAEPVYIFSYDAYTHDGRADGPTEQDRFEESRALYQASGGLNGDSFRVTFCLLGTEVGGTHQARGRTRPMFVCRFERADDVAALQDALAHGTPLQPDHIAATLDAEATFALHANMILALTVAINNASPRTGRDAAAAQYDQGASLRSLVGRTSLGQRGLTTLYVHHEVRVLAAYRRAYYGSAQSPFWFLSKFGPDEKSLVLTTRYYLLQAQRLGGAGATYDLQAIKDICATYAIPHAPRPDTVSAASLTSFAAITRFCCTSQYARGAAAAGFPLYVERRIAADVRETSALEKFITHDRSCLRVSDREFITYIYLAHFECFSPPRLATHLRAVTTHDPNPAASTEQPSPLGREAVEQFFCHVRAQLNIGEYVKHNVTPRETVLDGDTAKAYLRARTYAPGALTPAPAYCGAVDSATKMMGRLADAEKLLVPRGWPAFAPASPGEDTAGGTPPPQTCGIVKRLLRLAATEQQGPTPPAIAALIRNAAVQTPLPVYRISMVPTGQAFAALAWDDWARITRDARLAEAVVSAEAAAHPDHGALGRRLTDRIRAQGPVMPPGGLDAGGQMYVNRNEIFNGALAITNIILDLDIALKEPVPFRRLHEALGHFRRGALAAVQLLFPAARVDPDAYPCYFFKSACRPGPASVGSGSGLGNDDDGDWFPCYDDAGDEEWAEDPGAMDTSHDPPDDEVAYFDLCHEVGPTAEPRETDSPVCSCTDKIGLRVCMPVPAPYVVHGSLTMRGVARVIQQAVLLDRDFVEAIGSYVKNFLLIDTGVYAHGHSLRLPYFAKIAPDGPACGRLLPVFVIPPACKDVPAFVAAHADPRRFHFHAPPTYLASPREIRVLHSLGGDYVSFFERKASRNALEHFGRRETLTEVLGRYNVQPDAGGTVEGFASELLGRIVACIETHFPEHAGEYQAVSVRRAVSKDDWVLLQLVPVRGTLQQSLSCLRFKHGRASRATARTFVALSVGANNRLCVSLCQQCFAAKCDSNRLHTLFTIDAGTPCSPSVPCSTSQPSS

Row | SMILES | IC50 (HSV-1 helicase-primase) | EC50 (HCMV (strain AD169) [1]; [3]) | EC50 (HCMV (strain AD169) [2]) | other results
1 | Nc1nc(-c2ccc(NC(=O)CN(Cc3ccc(Cl)cc3)C(=O)CC3CCCCC3)cc2)cs1 [Example 69] | 0.43 µM | 8 µM |  | 
2 | Nc1nc(-c2ccc(NC(=O)CN(Cc3ccc(Cl)cc3)C(=O)c3ccncc3)cc2)cs1 [Example 55] | 0.57 µM |  | 11.9 µM | 
3 | Cc1ccccc1CN(CC(=O)Nc1ccc(-c2csc(N)n2)cc1)C(=O)c1ccncc1 [Example 102] | 0.19 µM | 18 µM | 11 µM | 
4 | Nc1nc(-c2ccc(NC(=O)CN(Cc3ccccc3)S(=O)(=O)N3CCOCC3)cc2)cs1 [Example 96] | 0.29 µM | 12 µM | 0.35 µM | 
5 | Nc1nc(-c2ccc(NC(=O)CN(Cc3ccccc3)S(=O)(=O)N3CCOCC3)cc2)cs1 [Example 7, N-{4-(2-Amino-4-thiazolyl)phenyl}-2-{(4-morpholinylsulfonyl)(phenylmethyl)amino}acetamide] |  |  |  | melting point: 193 to 194 °C
6 | CC(C)(C)OC(=O)N1CCC(C(=O)N(CC(=O)Nc2ccc(-c3csc(N)n3)cc2)CC2CCCCC2)CC1 [Example 61] | 4.4 µM |  |  | 
7 | Nc1nc(-c2ccc(NC(=O)CN(Cc3ccc(F)cc3)C(=O)C3CCCCC3)cc2)cs1 [Example 83] | 0.042 µM |  | 8.1 µM | 
8 | Cc1cccc(C)c1OCC(=O)N(CC(=O)Nc1ccc(-c2csc(N)n2)cc1)Cc1ccccc1 [Example 121] | 0.49 µM |  |  | EC50 (HCMV (strain AD169) [1]): > 31 µM
9 | Nc1nc(-c2ccc(NC(=O)CN(Cc3ccccc3F)C(=O)c3ccncc3)cc2)cs1 [Example 118] | 0.047 µM | 60 µM |  | 
10 | Nc1nc(-c2ccc(NC(=O)CN(CCc3ccccc3)C(=O)C3CCCCC3)cc2)cs1 [Example 68] | 0.18 µM |  | > 5 µM | 
11 | Nc1nc(-c2ccc(NC(=O)CN(CC3CCCCC3)C(=O)CC3CCCC3)cc2)cs1 [Example 75] | 0.21 µM |  | 48 µM | 
12 | Nc1nc(-c2ccc(NC(=O)CN(Cc3ccccc3)C(=O)N3CCOCC3)cc2)cs1 [Example 6, N-{2-{{4-(2-Amino-4-thiazolyl)phenyl}amino}-2-oxoethyl}-N-(phenylmethyl)-4-morpholinecarboxamide] |  |  |  | melting point: 105 °C (dec.)
13 | Nc1nc(-c2ccc(NC(=O)CN(Cc3ccccc3)C(=O)C3CCCCC3)cc2)cs1 [Example 4, N-{2-{{4-(2-Amino-4-thiazolyl)phenyl)amino}-2-oxoethyl}-N-(phenylmethyl)cyclohexanecarboxamide] |  |  |  | melting point: 214.5 to 215.5 °C
14 | CN(C(=O)CNCc1ccccc1)c1ccc(-c2csc(N)n2)cc1 [Example 10, N-{4-(2-Amino-4-thiazolyl)phenyl}-N-methyl-2-{(phenylmethyl)amino)acetamide] |  |  |  | melting point: 160 to 162 °C
15 | [N-]=[N+]=Nc1ccc(C(=O)N(CC(=O)Nc2ccc(-c3csc(N)n3)cc2)Cc2ccncc2)cc1 [Example 78] | 1 µM |  |  | 
16 | Cc1cc(C)nc(SCC(=O)N(CC(=O)Nc2ccc(-c3csc(N)n3)cc2)Cc2ccccc2)n1 [Example 122] |  |  |  | EC50 (HCMV (strain AD169) [1]): 3.3 µM
17 | CC(C)(C)OC(=O)N(CC(=O)Nc1ccc(-c2csc(N)n2)cc1)CC1CCCCC1 [Example 100] | 0.76 µM |  | 14 µM | 

Row | SMILES | IC50 (HSV-1 helicase-primase) | EC50 (HCMV (strain AD169) [1]; [3]) | EC50 (HCMV (strain AD169) [2]) | other results
18 | Nc1nc(-c2ccc(NC(=O)CN(Cc3ccccc3)C(=O)N3CCOCC3)cc2)cs1 [Example 95] | 0.14 µM | 90 µM | 57 µM | 
19 | Nc1nc(-c2ccc(NC(=O)CN(Cc3ccccc3)C(=O)Cc3ccncc3)cc2)cs1 [Example 114] | 0.8 µM | 23 µM |  | 
20 | CC(C)CN(CC(=O)Nc1ccc(-c2csc(N)n2)cc1)C(=O)C1CCCCC1 [Example 81] | 0.48 µM |  | 14 µM | 
21 | CC(c1ccccc1)N(CC(=O)Nc1ccc(-c2csc(N)n2)cc1)C(=O)Cc1ccccn1 (stereo not drawn) [Example 136] | 4.2 µM |  |  | EC50 (HCMV (strain AD169) [1]): 31 µM
22 | CN(C(=O)N(CC(=O)Nc1ccc(-c2csc(N)n2)cc1)Cc1ccccc1)C(C)(C)C [Example 94] | 0.026 µM | > 24 µM | > 8 µM | 
23 | CC(C)CN(CC(=O)Nc1ccc(-c2csc(N)n2)cc1)C(=O)OC(C)(C)C [Example 112] | 1.8 µM |  |  | 
24 | CC(c1ccccc1)N(CC(=O)Nc1ccc(-c2csc(N)n2)cc1)C(=O)c1cccnc1 (stereo not drawn) [Example 134] | 0.26 µM |  |  | EC50 (HCMV (strain AD169) [1]): 18 µM
25 | CC(c1ccccc1)N(CC(=O)Nc1ccc(-c2csc(N)n2)cc1)C(=O)c1ccncc1 (stereo not drawn) [Example 137] | 0.98 µM |  |  | EC50 (HCMV (strain AD169) [1]): 49 µM
26 | CN1CCC(C(=O)N(CC(=O)Nc2ccc(-c3csc(N)n3)cc2)CC2CCCCC2)CC1 [Example 138] | > 50 µM |  | 31.6 µM | 
27 | Nc1nc(-c2ccc(NC(=O)CN(CC3CCCCC3)C(=O)C3CCNCC3)cc2)cs1 [Example 62] |  |  |  | inhibition of HSV-1 helicase-primase (HSV-1 helicase-primase; at 50 μM): 29% inhi- bition at 50 μM
28 | CC(C)(C)NC(=O)N(CC(=O)Nc1ccc(-c2csc(N)n2)cc1)Cc1ccccc1 [Example 92] | 0.076 µM | 65 µM | 0.9 µM | 
29 | C[C@@H](c1ccccc1)N(CC(=O)Nc1ccc(-c2csc(N)n2)cc1)C(=O)NC(C)(C)C [Example 105] | 0.7 µM |  | 11 µM | 
30 | Nc1nc(-c2ccc(NC(=O)CN(CC3CCCCC3)C(=O)c3ccncc3)cc2)cs1 [Example 57] | 3.9 µM | 15.8 µM | 2.6 µM | 
31 | C[C@@H](c1ccccc1)N(CC(=O)Nc1ccc(-c2csc(N)n2)cc1)C(=O)Cc1ccccn1 [Example 135] | 0.78 µM | 38 µM |  | 
32 | CC(C)COC(=O)N(CC(=O)Nc1ccc(-c2csc(N)n2)cc1)Cc1ccccc1 [Example 86] | 0.17 µM | 24 µM | 3.8 µM | 
33 | C[C@@H](C1CCCCC1)N(CC(=O)Nc1ccc(-c2csc(N)n2)cc1)C(=O)OC(C)(C)C [Example 108] | 0.46 µM |  |  | 

— US6348477B1, “Anti-herpesvirus compounds and methods for identifying, making and using same” (Boehringer Ingelheim(Canada) Ltd., priority 1995, dated 2002)
